Test system: SARS-CoV-2
Experiment: microbe, parasite or virus in culture
Settings: Severe acute respiratory syndrome coronavirus 2, Vero C1008, 48 h

Row | Structure (SMILES) | IC50 [µM] | IC50 (read-out: pIC50 (converted)) [µM]
1 | CNC(=O)c1cc(Oc2ccc3nc(N[C@@H]4CCCC[C@H]4O)sc3c2)ccn1 [SOTULETINIB] | > 20 | > 20
2 | C/C(=N/NC(=N)N)c1cc(NC(=O)CCCCCCCCC(=O)Nc2cc(/C(C)=N\NC(=N)N)cc(/C(C)=N/NC(=N)N)c2)cc(/C(C)=N/NC(=N)N)c1 | > 20 | > 20
3 | O=C(O)c1ccc(N[C@H]2OC[C@H](O)[C@@H](O)[C@H]2O)cc1 | > 20 | > 20
4 | c1ccc(-c2ccc(C(c3ccccc3)n3ccnc3)cc2)cc1 (stereo not drawn) [BIFONAZOLE] | > 20 | > 20
5 | Cn1c(=O)c2[nH]c(Br)nc2n(C)c1=O [PAMABROM] | > 20 | > 20
6 | Cc1nccc2c1[nH]c1cc(O)ccc12 | > 20 | > 20
7 | CC1CC(C)C(=O)C(C(O)CC2CC(=O)NC(=O)C2)C1 (stereo not drawn) | > 20 | > 20
8 | N[C@@H](CSCCCO)C(=O)O [FUDOSTEINE] | > 20 | > 20
9 | CC(C)Cc1sc(N)nc1-c1ccc(P(=O)(O)O)o1 [MB-05032] | > 20 | > 20
10 | CC1(C)C2CC[C@@]1(C)C(=O)C2 | > 20 | > 20
11 | CC(C)=CCC/C(C)=C/CC/C(C)=C/CC/C(C)=C/CC1=C(C)C(=O)c2ccccc2C1=O [MENATETRENONE] | > 20 | > 20
12 | COCCCOc1cc(C[C@@H](C[C@H](N)[C@@H](O)C[C@H](C(=O)NCC(C)(C)C(N)=O)C(C)C)C(C)C)ccc1OC | > 20 | > 20
13 | C#CCN(C)Cc1ccccc1 [PARGYLINE] | > 20 | > 20
14 | O=C(NO)c1cc(Br)ccc1O [BROMOCYL] | > 20 | > 20
15 | C[C@]12C=CC(=O)C=C1CC[C@@H]1[C@@H]2[C@@H](O)C[C@@]2(C)[C@H]1CC[C@]2(O)C(=O)CO [PREDNISOLONE] | > 20 | > 20
16 | O[C@H]1[C@H](O)[C@@H](O)O[C@H]2COC(c3ccccc3)O[C@H]12 (stereo partly drawn) | > 20 | > 20
17 | O=P1(N(CCCl)CCCl)NCCCO1 (stereo not drawn) [CYCLOPHOSPHAMIDE ANHYDROUS] | > 20 | > 20
18 | COc1ccc(-c2cc(=O)c3ccccc3o2)cc1 [4'-METHOXYFLAVONE] | > 20 | > 20
19 | NC(=O)c1cnc(N[C@@H]2CCCC[C@@H]2N)nc1Nc1cccc(-n2nccn2)c1 | > 20 | > 20
20 | CC(CN1CCN(CCOCCO)CC1)CN1c2ccccc2Sc2ccccc21 (stereo not drawn) [DIXYRAZINE] | > 20 | > 20

Row | Structure (SMILES) | IC50 [µM] | IC50 (read-out: pIC50 (converted)) [µM]
21 | CC1CC(OC(=O)c2ccccc2O)CC(C)(C)C1 (stereo not drawn) [HOMOSALATE] | > 20 | > 20
22 | O=C1CC[C@@H](C(=O)O)N1 [PIDOLIC ACID] | > 20 | > 20
23 | CN1C(C)(C)CCCC1(C)C [PEMPIDINE] | > 20 | > 20
24 | CC1CC(OC(=O)C2CCC(=O)N2)CC(C)(C)C1 (stereo not drawn) | > 20 | > 20
25 | CCC(C)(CN(C)C)OC(=O)c1ccccc1 (stereo not drawn) [AMYLOCAINE] | > 20 | > 20
26 | C[C@@H]1CCC[C@@H](C)N1CCCC(O)(c1ccccc1)c1ccccn1 (stereo partly drawn) | > 20 | > 20
27 | c1ccc2[nH]ncc2c1 [INDAZOLE] | > 20 | > 20
28 | CN1CCC(=C2c3ccccc3C=Cc3ccccc32)CC1 [CYPROHEPTADINE] | > 20 | > 20
29 | CCC(CO)NC(=O)[C@@H]1C=C2c3cccc4[nH]cc(c34)CC2N(C)C1 (stereo partly drawn) | > 20 | > 20
30 | C=CCC1(C(C)CCC)C(=O)NC(=O)NC1=O (stereo not drawn) [SECOBARBITAL] | > 20 | > 20
31 | CCC[C@@]1(CCc2ccccc2)CC(O)=C([C@H](CC)c2cccc(NS(=O)(=O)c3ccc(C(F)(F)F)cn3)c2)C(=O)O1 | > 20 | > 20
32 | CC(C)C[C@H](NC(=O)[C@@H](O)[C@H](N)Cc1ccccc1)C(=O)O [UBENIMEX] | > 20 | > 20
33 | N#Cc1cc(NC(=O)C(=O)O)c(Cl)c(NC(=O)C(=O)O)c1 [LODOXAMIDE] | > 20 | > 20
34 | O=c1c2cc(O)c(O)cc2oc2cc(O)c([C@@H]3O[C@H](CO)[C@@H](O)[C@H](O)[C@H]3O)c(O)c12 [MANGIFERIN] | > 20 | > 20
35 | O=C(Cc1ccc(-c2ccccc2)cc1)Nc1ccccn1 [DIFENPIRAMIDE] | > 20 | > 20
36 | Clc1ccc(C(Cn2ccnc2)OCc2csc3c(Cl)cccc23)c(Cl)c1 (stereo not drawn) [SERTACONAZOLE] | > 20 | > 20
37 | Cc1cc2c(s1)Nc1ccccc1N=C2N1CCN(C)CC1 [OLANZAPINE] | > 20 | > 20
38 | CC1(C)S[C@@H]2[C@H](NC(=O)[C@H](N)c3ccccc3)C(=O)N2[C@H]1C(=O)O [AMPICILLIN] | > 20 | > 20
39 | CC(=O)Nc1ccc(C(=O)O)cc1 [ACEDOBEN] | > 20 | > 20

From ChEMBL document CHEMBL4651402, “Screening of ~5500 FDA-approved drugs and clinical candidates for anti-SARS-CoV-2 activity” (2021)
